Test results published in publication PMC7044277 (Nature Communications, 2020).
“And” between values parts separate entries of the source, which are not always exact repeats. Equal entries are not always repeated. Where two headings read alike, the source gives them in different places.

How the values were obtained:
[1] = biological target: DRD2 (D2 long receptor) wild-type (Homo sapiens, UniProt P14416); experiment: Radioligand competition binding, [3H]-N-methylspiperone, HEK293T membranes; settings: for Ki: DRD2, [3H]-methylspiperone (0.8-1.0 nM), read-out: Ki
[2] = biological target: DRD3 wild-type (Homo sapiens, UniProt P35462); experiment: Radioligand competition binding, [3H]-N-methylspiperone; settings: for Ki: DRD3, [3H]-methylspiperone (0.8-1.0 nM), read-out: Ki; for pKi ± SEM: DRD3 wild-type
[3] = biological target: T1, DRD2 (D2 long receptor) (Homo sapiens, UniProt P14416); experiment: Gαi/o-mediated cAMP inhibition (GloSensor split-luciferase cAMP reporter), HEK293T; assay type: cell-based; settings: for EC50: agonist, Gαi/o-mediated cAMP inhibition, read-out: EC50 ± SEM; for response, Fig_S11d dose-response source data: replicate values;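 as to all read-outs here: compounds applied 15 min at room temperature, then luciferin plus 400 nM isoproterenol to raise cAMP through endogenous β2-adrenergic receptors, luminescence read 15 min later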
[4] = biological target: T2, DRD3 F1063.28A (Homo sapiens, UniProt P35462, F106A); experiment: biochemical; assay type: binding; settings: for Ki: read-out: Ki
[5] = biological target: DRD3 (Homo sapiens, UniProt P35462); experiment: β-arrestin2 recruitment (Tango); assay type: cell-based; settings: DRD3; Tango; read-out: EC50 ± SEM
[6] = biological target: T1, DRD2 (D2 long receptor); experiment: β-arrestin2 recruitment (Tango), HTLA cells; assay type: cell-based; settings: for EC50 / Emax relative to quinpirole response: DRD2; for EC50: β-arrestin2 recruitment (Tango), read-out: EC50 ± SEM; for Emax relative to quinpirole response: Tango
[7] = biological target: T3, DRD4 (D4.4 variant) (Homo sapiens, UniProt P21917); experiment: β-arrestin2 recruitment (Tango); assay type: cell-based; settings: DRD4; Tango; read-out: EC50 ± SEM
T3 sequence (P21917 1-419): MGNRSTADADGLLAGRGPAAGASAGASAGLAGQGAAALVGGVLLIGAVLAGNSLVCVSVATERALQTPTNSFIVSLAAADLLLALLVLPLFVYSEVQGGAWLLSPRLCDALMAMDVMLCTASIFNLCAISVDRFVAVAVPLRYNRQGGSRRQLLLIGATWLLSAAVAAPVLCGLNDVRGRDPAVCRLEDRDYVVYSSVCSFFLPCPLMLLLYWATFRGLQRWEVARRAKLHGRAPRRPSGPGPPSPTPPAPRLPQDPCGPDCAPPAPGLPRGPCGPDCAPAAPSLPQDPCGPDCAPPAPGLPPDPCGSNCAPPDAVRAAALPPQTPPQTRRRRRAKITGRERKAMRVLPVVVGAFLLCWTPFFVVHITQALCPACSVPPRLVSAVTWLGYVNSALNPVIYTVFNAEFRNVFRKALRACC

[8] = biological target: T4, DRD4 (D4.4 variant) wild-type (Homo sapiens, UniProt P21917); experiment: Radioligand competition binding, [3H]-N-methylspiperone; settings: DRD4; [3H]-methylspiperone (0.8-1.0 nM); read-out: Ki
T4 sequence (P21917 1-419): T3 sequence (P21917 1-419)

[9] = biological target: T3, DRD4 (D4.4 variant); experiment: Gαi/o-mediated cAMP inhibition (GloSensor); assay type: cell-based; settings: DRD4; agonist, cAMP inhibition; read-out: EC50 ± SEM
[10] = biological target: T5, DRD2 F1103.28A (Homo sapiens, UniProt P14416, F110A); assay type: binding; design: expressed in transfected cells; host or cells: HEK293T (ATCC CRL-11268); settings: for Ki: read-out: Ki
[11] = biological target: T2, DRD3 F1063.28A; experiment: cell-based; assay type: cell-based; settings: DRD3 F1063.28A; Tango; read-out: EC50 ± SEM
[12] = biological target: T5, DRD2 F1103.28A; experiment: β-arrestin2 recruitment (Tango), mutant; assay type: cell-based; design: expressed in transfected cells; host or cells: HEK293T (ATCC CRL-11268)
[13] = biological target: T6, DRD2 F1103.28L (Homo sapiens, UniProt P14416, F110L); experiment: Gαi/o-mediated cAMP inhibition (GloSensor), mutant; assay type: cell-based; settings: DRD2 F1103.28L (b138 head prints DRD2 F1063.28L)
T6 construct: expressed in transfected cells; host or cells: HEK293T (ATCC CRL-11268)

[14] = biological target: T5, DRD2 F1103.28A; experiment: Gαi/o-mediated cAMP inhibition (GloSensor), mutant; assay type: cell-based; design: expressed in transfected cells; host or cells: HEK293T (ATCC CRL-11268)
[15] = biological target: T6, DRD2 F1103.28L; experiment: β-arrestin2 recruitment (Tango), mutant; assay type: cell-based

T5 sequence (P14416 whole entry F110A): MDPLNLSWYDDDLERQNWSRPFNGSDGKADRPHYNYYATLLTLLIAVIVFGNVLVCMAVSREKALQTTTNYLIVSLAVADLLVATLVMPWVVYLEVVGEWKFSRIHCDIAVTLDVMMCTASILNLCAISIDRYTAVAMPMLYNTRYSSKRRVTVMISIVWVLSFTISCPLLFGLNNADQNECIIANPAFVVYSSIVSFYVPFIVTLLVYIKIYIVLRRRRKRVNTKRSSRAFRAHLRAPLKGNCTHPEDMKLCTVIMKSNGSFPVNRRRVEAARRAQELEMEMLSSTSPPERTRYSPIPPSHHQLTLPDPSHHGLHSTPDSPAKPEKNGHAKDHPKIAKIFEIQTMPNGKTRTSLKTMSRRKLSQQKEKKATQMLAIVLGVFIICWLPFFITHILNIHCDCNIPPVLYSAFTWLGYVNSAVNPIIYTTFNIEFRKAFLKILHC
T2 sequence (P35462 whole entry F106A): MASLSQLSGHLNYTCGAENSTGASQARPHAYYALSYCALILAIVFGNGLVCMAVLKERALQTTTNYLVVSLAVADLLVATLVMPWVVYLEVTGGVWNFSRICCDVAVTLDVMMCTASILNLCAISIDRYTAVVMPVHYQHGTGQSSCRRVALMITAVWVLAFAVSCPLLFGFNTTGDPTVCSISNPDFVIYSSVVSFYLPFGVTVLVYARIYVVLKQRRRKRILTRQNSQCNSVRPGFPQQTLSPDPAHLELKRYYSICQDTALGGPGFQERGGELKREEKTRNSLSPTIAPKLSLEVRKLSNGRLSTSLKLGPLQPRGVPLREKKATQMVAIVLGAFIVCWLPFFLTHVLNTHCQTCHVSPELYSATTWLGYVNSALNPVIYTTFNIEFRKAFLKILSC
DRD3 wild-type, sequence (P35462 whole entry): as the sequence (P35462 whole entry F106A) above, with A106F counted along it
DRD3, sequence (P35462 whole entry): as the sequence (P35462 whole entry F106A) above, with A106F counted along it
T6 sequence (P14416 whole entry F110L): as the sequence (P14416 whole entry F110A) above, with A110L counted along it
T1 sequence (P14416 whole entry): as the sequence (P14416 whole entry F110A) above, with A110F counted along it
DRD2 (D2 long receptor) wild-type, sequence (P14416 whole entry): as the sequence (P14416 whole entry F110A) above, with A110F counted along it

CCOc1cccc2cc(C(C)NCC(C)(C)O)oc12 (racemic) [O4LE2]
Ki [1]: > 10 µM | Ki [2]: > 10 µM | EC50 ([3]; DRD2): > 10 µM | Ki ([4]; DRD3 F1063.28A): > 10 µM | EC50 [5]: > 10 µM | EC50 [6]: > 10 µM | EC50 [7]: > 10 µM | Ki [8]: > 10 µM | EC50 [9]: > 10 µM | Ki ([10]; DRD2 F1103.28A): > 10 µM

CCOc1cccc2cc(C(C)NCC3(O)CC3)oc12.Cl (racemic) [O4LE3]
Ki [1]: > 10 µM | EC50 [11]: > 10 µM | Ki [2]: 4.37 µM | pKi ± SEM [2]: 5.36±0.31 | EC50 [12]: > 10 µM | EC50 ([3]; DRD2): > 10 µM | EC50 [13]: > 10 µM | Ki ([4]; DRD3 F1063.28A): > 10 µM | EC50 [5]: > 10 µM | Emax relative to quinpirole response [6]: 9.29% | EC50 [6]: 8.85 ± 2.62 µM | EC50 [14]: > 10000 nM | EC50 [7]: > 10 µM | Ki [8]: > 10 µM | EC50 [15]: > 10 µM | EC50 [9]: > 10 µM | Ki ([10]; DRD2 F1103.28A): > 10 µM

CCOc1cccc2cc(C(C)NCC3(O)CCCC3)oc12.Cl (racemic) [O4LE5]
Ki [1]: 9.55 µM | pKi ± SEM ([1]; DRD2 wild-type): 5.02±0.07 | EC50 [11]: > 10 µM | Ki [2]: 1.02 µM | pKi ± SEM [2]: 5.99±0.02 | EC50 [12]: > 10 µM | EC50 ([3]; DRD2): 0.0203 ± 0.00906 µM | Emax relative to quinpirole response ([3]; DRD2, cAMP inhibition): 90.02% | response, Fig_S11d dose-response source data ([3]; Log[Drug] -6.52): 89.8047 | response, Fig_S11d dose-response source data ([3]; Log[Drug] -7): 65.0385 and 57.9248 and 60.2207 and 80.9341 and 74.6312 and 79.279 and 82.9188 and 82.7948 and 77.3857 | response, Fig_S11d dose-response source data ([3]; Log[Drug] -7.52): 39.5571 and 33.4973 and 24.3511 and 57.6284 and 63.6471 and 63.1957 and 71.0585 and 72.7209 and 64.8058 | response, Fig_S11d dose-response source data ([3]; Log[Drug] -8): 9.5215 and 11.2717 and 13.7182 and 48.383 and 49.6202 and 44.9055 and 35.7008 and 48.9506 and 59.4463 | response, Fig_S11d dose-response source data ([3]; Log[Drug] -8.52): -3.6708 and -0.0387 and -1.4878 and 27.1503 and 28.8723 and 39.8732 and 29.7954 and 40.3159 and 28.6789 | response, Fig_S11d dose-response source data ([3]; Log[Drug] -9): 6.661 and 7.056 and -0.9609 and 40.0738 and 31.9486 and 25.4952 and 24.1382 and 31.3586 and 28.8029 | response, Fig_S11d dose-response source data ([3]; Log[Drug] -9.52): 12.3068 and -0.3586 and -16.1104 and 30.2934 and 20.4294 and 33.0687 and 10.7891 and 20.7389 and 17.29 | response, Fig_S11d dose-response source data ([3]; Log[Drug] -10): -16.468 and 1.297 and -13.024 and 16.0491 and 30.494 and 18.4566 and 11.0621 and 15.5283 and 8.9282 | response, Fig_S11d dose-response source data ([3]; Log[Drug] -10.52): -14.0967 and 4.779 and -14.8495 and 16.7012 and 24.0741 and 20.5632 and 2.204 and 13.0967 and 9.052 | response, Fig_S11d dose-response source data ([3]; Log[Drug] -11): -2.7111 and 12.7961 and -15.5834 and 17.8548 and 27.4178 and 14.9457 and -4.6938 and 9.499 and 12.5508 | response, Fig_S11d dose-response source data ([3]; Log[Drug] -11.52): -7.9428 and 7.113 and -8.1498 and 19.6269 and 38.218 and 27.7856 and 20.6149 and 38.3557 and 9.623 | response, Fig_S11d dose-response source data ([3]; Log[Drug] -12): -24.8425 and -18.4063 and -14.0215 and 7.974 and -7.6244 and -4.264 and -3.478 and -21.2934 and -10.4999 | EC50 [13]: > 10 µM | pKi ± SEM ([4]; DRD3 F1063.28A): 5.37±0.13 | Ki ([4]; DRD3 F1063.28A): 4.27 µM | affinity decreased, mutant vs wild type ([4]; DRD3 Phe106^3.28Ala vs wild-type DRD3): 4.19 fold | EC50 [5]: > 10 µM | response, Fig_S11e dose-response source data [6]: 4.195 and 4.191 | Emax relative to quinpirole response [6]: 69.77% | EC50 [6]: 0.591 ± 0.16 µM | response, Fig_S11e dose-response source data ([6]; Fig_S11e, Log[Drug] -6.52, replicate values): 29.7819 | response, Fig_S11e dose-response source data ([6]; Fig_S11e, Log[Drug] -7, replicate values): 14.8195 and 15.4716 and 11.9245 and 14.4902 and 10.6077 and 13.3375 and 15.5705 and 13.1474 and 10.3991 | response, Fig_S11e dose-response source data ([6]; Fig_S11e, Log[Drug] -7.52, replicate values): 5.649 and 7.617 and 8.153 and 5.088 and 5.357 and 5.685 and 6.459 and 7.136 and 7.327 | response, Fig_S11e dose-response source data ([6]; Fig_S11e, Log[Drug] -8, replicate values): 4.53 and 4.924 and 7.437 and 4.448 and 4.588 and 4.761 and 4.942 and 5.222 and 4.354 | response, Fig_S11e dose-response source data ([6]; Fig_S11e, Log[Drug] -8.52, replicate values): 5.418 and 3.578 and 5.097 and 4.558 and 4.204 and 3.944 and 4.259 and 4.448 | response, Fig_S11e dose-response source data ([6]; Fig_S11e, Log[Drug] -9, replicate values): 5.551 and 4.294 and 3.766 and 4.187 and 3.973 and 4.022 and 3.996 and 4.409 and 5.115 | response, Fig_S11e dose-response source data ([6]; Fig_S11e, Log[Drug] -9.52, replicate values): 3.774 and 3.895 and 3.825 and 3.992 and 4.187 and 3.4742 and 3.994 and 4.11 | response, Fig_S11e dose-response source data ([6]; Fig_S11e, Log[Drug] -10, replicate values): 3.543 and 4.048 and 4.417 and 4.083 and 4.005 and 3.8893 and 4.472 and 4.295 and 4.703 | response, Fig_S11e dose-response source data ([6]; Fig_S11e, Log[Drug] -10.52, replicate values): 4.321 and 3.611 and 3.873 and 3.908 and 3.996 and 3.919 and 3.699 and 4.48 and 4.116 | response, Fig_S11e dose-response source data ([6]; Fig_S11e, Log[Drug] -11, replicate values): 3.51 and 3.391 and 4.782 and 4.294 and 4.024 and 3.997 and 3.756 and 4.401 and 4.222 | response, Fig_S11e dose-response source data ([6]; Fig_S11e, Log[Drug] -11.52, replicate values): 3.707 and 4 and 3.724 and 4.053 and 3.84 and 3.862 and 4.291 and 4.0833 and 3.6644 | response, Fig_S11e dose-response source data ([6]; Fig_S11e, Log[Drug] -12, replicate values): 4.3048 and 3.879 and 4.62 and 3.975 and 4.688 and 4.168 and 3.647 and 4.316 and 4.328 | EC50 [14]: 0.05 ± 0.04 nM | Emax relative to quinpirole response [14]: 13.66% | EC50 [7]: > 10 µM | Ki [8]: > 10 µM | EC50 [15]: > 10 µM | EC50 [9]: > 10 µM | pKi ± SEM ([10]; DRD2 F1103.28A): 6.03±0.14 | Ki ([10]; DRD2 F1103.28A): 0.93 µM | affinity increase (binding enhanced), mutant vs wild type ([10]; DRD2 Phe110^3.28Ala vs wild-type DRD2): 10.27 fold

CCOc1cccc2cc(C(C)NCCO)oc12 (centres unmarked) [O4LE1]
Ki [1]: > 10 µM | Ki [2]: > 10 µM | EC50 ([3]; DRD2): > 10 µM | Ki ([4]; DRD3 F1063.28A): > 10 µM | EC50 [5]: > 10 µM | EC50 [6]: > 10 µM | EC50 [7]: > 10 µM | Ki [8]: > 10 µM | EC50 [9]: > 10 µM | Ki ([10]; DRD2 F1103.28A): > 10 µM
